In patent EP3960174B1 (priority 2020, dated 2022):

Target: T1, AChE (Homo sapiens, UniProt P22303)
T1 construct: purchased Sigma Aldrich, Taufkirchen, D
Assay: biochemical

T1 sequence (P22303 32-614): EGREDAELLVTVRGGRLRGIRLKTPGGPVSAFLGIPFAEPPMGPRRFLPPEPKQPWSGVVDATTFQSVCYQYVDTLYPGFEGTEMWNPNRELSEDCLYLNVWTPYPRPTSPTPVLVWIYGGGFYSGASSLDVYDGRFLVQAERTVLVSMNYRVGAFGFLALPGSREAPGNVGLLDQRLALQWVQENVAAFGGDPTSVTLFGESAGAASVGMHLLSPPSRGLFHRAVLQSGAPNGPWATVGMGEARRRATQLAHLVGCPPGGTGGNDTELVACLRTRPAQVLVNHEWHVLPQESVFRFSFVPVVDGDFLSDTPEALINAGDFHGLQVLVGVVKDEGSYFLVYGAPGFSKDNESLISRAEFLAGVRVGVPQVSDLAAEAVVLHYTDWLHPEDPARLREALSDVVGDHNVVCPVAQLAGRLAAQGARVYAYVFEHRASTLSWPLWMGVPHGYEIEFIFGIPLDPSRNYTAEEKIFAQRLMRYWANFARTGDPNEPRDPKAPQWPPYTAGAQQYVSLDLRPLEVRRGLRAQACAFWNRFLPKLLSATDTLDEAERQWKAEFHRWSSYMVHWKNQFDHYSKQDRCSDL

| SMILES | IC50 |
| --- | --- |
| CC1N=C(CCCCCCCCCCc2cc(O)ccc2OC2OC(CO)C(O)C(O)C2O)CC1O (stereo not drawn) [compound 1, tiliine A] | 231 µM |
| CC(=O)OC1CCC(CCCCCCCCCc2cc(O)ccc2O[C@@H]2O[C@H](CO)[C@@H](O)[C@H](O)[C@H]2O)NC1C (stereo partly drawn) [compound 3, acetyl-tiliamine A] | 50% inhibition level was not achieved |
| CC1NC(CCCCCCCCCc2cc(O)ccc2OC2OC(CO)C(O)C(O)C2O)CCC1O (stereo not drawn) [compound 2, tiliamine A] | 172 µM |
